Biological target: 5-HT2A (Homo sapiens (Human), UniProt P28223)
Assay: Radioligand binding assay, [^3H]5-HT competition, 5-HT2A
Settings: [^3H]5-HT radioligand, membranes of HEK293 cells expressing recombinant 5-HT2A; Ki from IC50 by Cheng-Prusoff; read-out: 5-HT2A serotonin binding Ki value

5-HT2A, sequence (P28223 whole entry): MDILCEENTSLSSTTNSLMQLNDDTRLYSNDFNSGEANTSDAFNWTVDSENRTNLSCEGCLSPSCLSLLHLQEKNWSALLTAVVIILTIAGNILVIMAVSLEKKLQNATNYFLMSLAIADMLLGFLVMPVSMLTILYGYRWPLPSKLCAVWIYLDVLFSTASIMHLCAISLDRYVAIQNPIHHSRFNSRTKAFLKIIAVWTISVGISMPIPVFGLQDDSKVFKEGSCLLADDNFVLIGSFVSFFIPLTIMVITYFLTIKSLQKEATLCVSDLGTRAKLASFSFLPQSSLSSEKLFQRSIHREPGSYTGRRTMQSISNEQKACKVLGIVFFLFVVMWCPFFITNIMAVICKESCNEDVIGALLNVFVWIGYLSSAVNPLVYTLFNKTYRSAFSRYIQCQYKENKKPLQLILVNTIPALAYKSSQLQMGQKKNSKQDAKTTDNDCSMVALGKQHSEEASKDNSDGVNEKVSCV

| Compound | Ki |
| --- | --- |
| Cc1ncnc(C)c1-c1cc(NC(=O)C2CC2)ccc1OCCN1CCOCC1 [Compound 390, N-[3-(4,6-dimethylpyrimidin-5-yl)-4-(2-morpholinoethoxy)phenyl]cyclopropanecarboxamide] | 0.00525 µM |
| Cc1ncncc1-c1cc(NC(=O)C2CC2)ccc1OCCN1CCOCC1 [Compound 391, N-(3-(4-methylpyrimidin-5-yl)-4-(2-morpholinoethoxy)phenyl)cyclopropanecarboxamide] | 0.0253 µM |
| Cc1ncnc(C)c1-c1cc(NC(=O)[C@@H]2C[C@@H]2F)ccc1OCCN1CCOCC1 [Compound 392, (1S,2S)—N-[3-(4,6-dimethylpyrimidin-5-yl)-4-(2-morpholinoethoxy)phenyl]-2-fluoro-cyclopropanecarboxamide] | 0.0152 µM |
| Cc1ncoc1C(=O)Nc1ccc(OCCN2CCOCC2)c(-c2c(C)ncnc2C)c1 [Compound 393, N-(3-(4,6-dimethylpyrimidin-5-yl)-4-(2-morpholinoethoxy)phenyl)-4-methyloxazole-5-carboxamide] | 0.0112 µM |
| Cc1ncnc(C)c1-c1cc(NC(=O)c2ccnn2C)ccc1OCCN1CCOCC1 [Compound 394, N-(3-(4,6-dimethylpyrimidin-5-yl)-4-(2-morpholinoethoxy)phenyl)-1-methyl-1H-pyrazole-5-carboxamide] | 0.013 µM |
| CCCC(=O)Nc1ccc(OC2CNC2)c(-c2c(C)ncnc2C)c1 [Compound 397, N-(4-(azetidin-3-yloxy)-3-(4,6-dimethylpyrimidin-5-yl)phenyl) butyramide] | 0.00859 µM |
| Cc1ncnc(C)c1-c1cc(NC(=O)c2ccnn2C)ccc1OC1CNC1 [Compound 399, N-(4-(azetidin-3-yloxy)-3-(4,6-dimethylpyrimidin-5-yl)phenyl)-1-methyl-1H-pyrazole-5-carboxamide] | 0.0128 µM |
| CCOC1CC1C(=O)Nc1ccc(OCCN2CCOCC2)c(-c2c(C)ncnc2C)c1 (stereo not shown) [Compound 401, N-(3-(4,6-dimethylpyrimidin-5-yl)-4-(2-morpholinoethoxy)phenyl)-2-ethoxycyclopropane-1-carboxamide] | 0.0309 µM |
| Cc1ncnc(C)c1-c1cc(NC(=O)c2c(F)cnn2C)ccc1OC1CNC1 [Compound 402, N-(4-(azetidin-3-yloxy)-3-(4,6-dimethylpyrimidin-5-yl)phenyl)-4-fluoro-1-methyl-1H-pyrazole-5-carboxamide] | 0.00287 µM |
| Cc1ncnc(C)c1-c1cc(NC(=O)C2CC2)ccc1O[C@@H]1CCNC1 [Compound 403, N-[3-(4,6-dimethylpyrimidin-5-yl)-4-[(3R)-pyrrolidin-3-yl]oxy-phenyl]cyclopropanecarboxamide] | 0.0249 µM |
| Cc1ncnc(C)c1-c1cc(NC(=O)C2CC2)ccc1O[C@H]1CCNC1 [Compound 404, (S)—N-(3-(4,6-dimethylpyrimidin-5-yl)-4-(pyrrolidin-3-yloxy)phenyl)cyclopropanecarboxamide] | 0.0692 µM |
| Cc1ncnc(C)c1-c1cc(NC(=O)C2CC2)ccc1OC[C@H]1CCN1 [Compound 405, N-[4-[[(2R)-azetidin-2-yl]methoxy]-3-(4,6-dimethylpyrimidin-5-yl)phenyl]cyclopropanecarboxamide] | 0.0524 µM |
| Cc1ncnc(C)c1-c1cc(NC(=O)C2CC2)ccc1OC[C@@H]1CCN1 [Compound 406, (S)—N-(4-(azetidin-2-ylmethoxy)-3-(4,6-dimethylpyrimidin-5-yl)phenyl)cyclopropanecarboxamide] | 0.057 µM |
| Cc1ncnc(C)c1-c1cc(NC(=O)C2CC2)ccc1OC[C@@H]1CCCN1 [Compound 407, N-[3-(4,6-dimethylpyrimidin-5-yl)-4-[[(2S)-pyrrolidin-2-yl]methoxy]phenyl]cyclopropanecarboxamide] | 0.168 µM |
| Cc1ncnc(C)c1-c1cc(NC(=O)C2CC2)ccc1OC[C@H]1CCCN1 [Compound 408, (R)—N-(3-(4,6-dimethylpyrimidin-5-yl)-4-(pyrrolidin-2-ylmethoxy)phenyl)cyclopropanecarboxamide] | 0.0299 µM |
| Cc1ncnc(C)c1-c1cc(NC(=O)[C@H]2C[C@H]2F)ccc1O[C@@H]1CCCNC1 [Compound 410, (1R,2R)—N-(3-(4,6-dimethylpyrimidin-5-yl)-4-(((R)-piperidin-3-yl)oxy)phenyl)-2-fluorocyclopropane-1-carboxamide] | 0.0374 µM |
| Cc1ncnc(C)c1-c1cc(NC(=O)[C@@H]2C[C@@H]2F)ccc1O[C@@H]1CCCNC1 [Compound 411, (1S,2S)—N-(3-(4,6-dimethylpyrimidin-5-yl)-4-(((R)-piperidin-3-yl)oxy)phenyl)-2-fluorocyclopropane-1-carboxamide] | 0.0128 µM |
| Cc1ncsc1C(=O)Nc1ccc(O[C@@H]2CCCNC2)c(-c2c(C)ncnc2C)c1 [Compound 412, (R)—N-(3-(4,6-dimethylpyrimidin-5-yl)-4-(piperidin-3-yloxy)phenyl)-4-methylthiazole-5-carboxamide] | 0.02 µM |
| Cc1nc(C)c(C(=O)Nc2ccc(O[C@@H]3CCCNC3)c(-c3c(C)ncnc3C)c2)s1 [Compound 413, (R)—N-(3-(4,6-dimethylpyrimidin-5-yl)-4-(piperidin-3-yloxy)phenyl)-2,4-dimethylthiazole-5-carboxamide] | 0.255 µM |

| Compound | Ki |
| --- | --- |
| Cc1cnoc1C(=O)Nc1ccc(O[C@@H]2CCCNC2)c(-c2c(C)ncnc2C)c1 [Compound 414, (R)—N-(3-(4,6-dimethylpyrimidin-5-yl)-4-(piperidin-3-yloxy)phenyl)-4-methylisoxazole-5-carboxamide] | 0.091 µM |
| Cc1ncoc1C(=O)Nc1ccc(O[C@@H]2CCCNC2)c(-c2c(C)ncnc2C)c1 [Compound 415, (R)—N-(3-(4,6-dimethylpyrimidin-5-yl)-4-(piperidin-3-yloxy)phenyl)-4-methyloxazole-5-carboxamide] | 0.101 µM |
| Cc1ncnc(C)c1-c1cc(NC(=O)c2cccn2C)ccc1O[C@@H]1CCCNC1 [Compound 416, (R)—N-(3-(4,6-dimethylpyrimidin-5-yl)-4-(piperidin-3-yloxy)phenyl)-1-methyl-1H-pyrrole-2-carboxamide] | 0.0453 µM |
| Cc1ncnc(C)c1-c1cc(NC(=O)c2ccnn2C)ccc1O[C@@H]1CCCNC1 [Compound 417, (R)—N-(3-(4,6-dimethylpyrimidin-5-yl)-4-(piperidin-3-yloxy)phenyl)-1-methyl-1H-pyrazole-5-carboxamide] | 0.0403 µM |
| Cc1ncnc(C)c1-c1cc(NC(=O)C2CC2)ccc1O[C@@H]1CCCNC1 [Compound 418, (R)—N-(3-(4,6-dimethylpyrimidin-5-yl)-4-(piperidin-3-yloxy)phenyl)cyclopropanecarboxamide] | 0.00729 µM |
| Cc1ncnc(C)c1-c1cc(NC(=O)C2CC2)ccc1O[C@H]1CCCNC1 [Compound 419, (S)—N-(3-(4,6-dimethylpyrimidin-5-yl)-4-(piperidin-3-yloxy)phenyl)cyclopropanecarboxamide] | 0.443 µM |
| Cc1ncnc(C)c1-c1cc(NC(=O)C2CC2)ccc1OC[C@@H]1CCCCN1 [Compound 420, N-[3-(4,6-dimethylpyrimidin-5-yl)-4-[[(2S)-2-piperidyl]methoxy]phenyl]cyclopropanecarboxamide] | 0.0927 µM |
| Cc1ncnc(C)c1-c1cc(NC(=O)C2CC2)ccc1OC[C@H]1CCCCN1 [Compound 421] | 0.00941 µM |
| Cc1ncnc(C)c1-c1cc(NC(=O)[C@@H]2C[C@H]2F)ccc1OC[C@H]1CCCCN1 [Compound 422, (1S,2R)—N-[3-(4,6-dimethylpyrimidin-5-yl)-4-[[(2R)-2-piperidyl]methoxy]phenyl]-2-fluoro-cyclopropanecarboxamide] | 0.00458 µM |
| Cc1ncnc(C)c1-c1cc(NC(=O)[C@H]2C[C@H]2F)ccc1OC[C@H]1CCCCN1 [Compound 423, (1R,2R)—N-(3-(4,6-dimethylpyrimidin-5-yl)-4-(((R)-piperidin-2-yl)methoxy)phenyl)-2-fluorocyclopropane-1-carboxamide] | 0.0162 µM |
| Cc1ncnc(C)c1-c1cc(NC(=O)[C@@H]2C[C@@H]2F)ccc1OC[C@H]1CCCCN1 [Compound 424, (1S,2S)—N-(3-(4,6-dimethylpyrimidin-5-yl)-4-(((R)-piperidin-2-yl)methoxy)phenyl)-2-fluorocyclopropane-1-carboxamide] | 0.0125 µM |
| Cc1ncsc1C(=O)Nc1ccc(OC[C@H]2CCCCN2)c(-c2c(C)ncnc2C)c1 [Compound 425, (R)—N-(3-(4,6-dimethylpyrimidin-5-yl)-4-(piperidin-2-ylmethoxy)phenyl)-4-methylthiazole-5-carboxamide] | 0.0438 µM |
| Cc1nc(C)c(C(=O)Nc2ccc(OC[C@H]3CCCCN3)c(-c3c(C)ncnc3C)c2)s1 [Compound 426, (R)—N-(3-(4,6-dimethylpyrimidin-5-yl)-4-(piperidin-2-ylmethoxy)phenyl)-2,4-dimethylthiazole-5-carboxamide] | 0.0872 µM |
| Cc1cnoc1C(=O)Nc1ccc(OC[C@H]2CCCCN2)c(-c2c(C)ncnc2C)c1 [Compound 427, (R)—N-(3-(4,6-dimethylpyrimidin-5-yl)-4-(piperidin-2-ylmethoxy)phenyl)-4-methylisoxazole-5-carboxamide] | 0.0272 µM |
| Cc1ncoc1C(=O)Nc1ccc(OC[C@H]2CCCCN2)c(-c2c(C)ncnc2C)c1 [Compound 428, (R)—N-(3-(4,6-dimethylpyrimidin-5-yl)-4-(piperidin-2-ylmethoxy)phenyl)-4-methyloxazole-5-carboxamide] | 0.0353 µM |
| Cc1ncnc(C)c1-c1cc(NC(=O)c2cnoc2)ccc1OC[C@H]1CCCCN1 [Compound 429, (R)—N-(3-(4,6-dimethylpyrimidin-5-yl)-4-(piperidin-2-ylmethoxy)phenyl)isoxazole-4-carboxamide] | 0.131 µM |
| Cc1nocc1C(=O)Nc1ccc(OC[C@H]2CCCCN2)c(-c2c(C)ncnc2C)c1 [Compound 430, (R)—N-(3-(4,6-dimethylpyrimidin-5-yl)-4-(piperidin-2-ylmethoxy)phenyl)-3-methylisoxazole-4-carboxamide] | 0.0216 µM |
| Cc1ncnc(C)c1-c1cc(NC(=O)c2cnoc2C)ccc1OC[C@H]1CCCCN1 [Compound 431, (R)—N-(3-(4,6-dimethylpyrimidin-5-yl)-4-(piperidin-2-ylmethoxy)phenyl)-5-methylisoxazole-4-carboxamide] | 0.0549 µM |

— patent US20250270172A1, “Pyrimidine Derivatives As Modulators of the 5-HT2A Serotonin Receptor Useful For The Treatment of Disorders Related Thereto” (Arena Pharmaceuticals, Inc., priority 2020, published 2025)
